# Source: patent publication US6680177B2, “Low molecular weight heparin assay, system and reagent therefor” (Cardiovascular Diagnostics, Inc., priority 2001, dated 2004)
# Where a SMILES comes first, the peptide text is derived from it. Bridges are numbered along the chain shown (N, C = ends). [ ]: non-standard residue; d: D form. hArg = N=C(N)NCCCC[C@H](N)C(=O)O; Mpa = O=C(O)CCS
# Tested on: citrated whole blood (CWB)
# Experiment: Interference testing for Rapidpoint ENOX test in citrated whole blood
# Format: biochemical
# Conditions: for EFFECT on ENOX test: CWB; for sensitivity of the ENOX test to the agent: in vitro, citrated whole blood
structure (smiles),measurement,setting,value
CCCCS(=O)(=O)N[C@@H](Cc1ccc(OCCCCC2CCNCC2)cc1)C(=O)O [Tirofiban],EFFECT on ENOX test,0-5600 ng/ml,No effect at 0-5600 ng/ml
same,sensitivity of the ENOX test to the agent,,insensitive
CC(=O)Oc1ccccc1C(=O)O [Aspirin],EFFECT on ENOX test,0-300 ug/ml,No effect at 0-300 ug/ml
same,sensitivity of the ENOX test to the agent,,insensitive
N=C(N)NCCCC[C@@H]1NC(=O)CCSSC[C@@H](C(N)=O)NC(=O)[C@@H]2CCCN2C(=O)[C@H](Cc2c[nH]c3ccccc23)NC(=O)[C@H](CC(=O)O)NC(=O)CNC1=O [Eptifibatide] ([Mpa][hArg]GDWPC-NH2; disulfide 1-7),EFFECT on ENOX test,0-2600 ng/ml,No effect at 0-2600 ng/ml
same,sensitivity of the ENOX test to the agent,,insensitive
O=[N+]([O-])OCC(CO[N+](=O)[O-])O[N+](=O)[O-] [Nitroglycerin],EFFECT on ENOX test,0-1000 ng/ml,No effect at 0-1000 ng/ml
O=C(c1ccccc1)c1ccc2n1CCC2C(=O)O (centres unmarked) [Ketorolac tromethamine],EFFECT on ENOX test,0-12 ng/ml,No effect at 0-12 ng/ml
